Drawing on ChEMBL document CHEMBL1139749, “Design, synthesis and in vivo activity of 9-(S)-dihydroerythromycin derivatives as potent anti-inflammatory agents” (2006), this text covers Inhibition for 12 compounds.

Each structure is given as a SMILES string.

This test has as its system Mus musculus. Nature of the test: Antiinflammatory activity in topically dosed CD1 mouse assessed as inhibition of PMA-induced ear edema at 0.5 mg/ear. The format is functional.
As to `CC[C@H]1OC(=O)[C@H](C)[C@@H](O)[C@H](C)[C@@H](O[C@H]2O[C@@H](C)C[C@@H](NCCNCCNCc3nccs3)[C@@H]2O)[C@](C)(O)C[C@@H](C)[C@H](O)[C@H](C)[C@@H](O)[C@]1(C)O`, the Inhibition (in general, the relative decrease from the control value, in per cent) is given as 45%.

Turning to `CC[C@H]1OC(=O)[C@H](C)[C@@H](O[C@H]2C[C@@](C)(OC)[C@@H](O)[C@H](C)O2)[C@H](C)[C@@H](O[C@H]2O[C@@H](C)C[C@@H](N(C)C(=O)CNCCNCc3ccccc3)[C@@H]2O)[C@](C)(O)C[C@@H](C)[C@H](O)[C@H](C)[C@@H](O)[C@]1(C)O`, the Inhibition stood at 87%.

As to `CC[C@H]1OC(=O)[C@H](C)[C@@H](O[C@H]2C[C@@](C)(OC)[C@@H](O)[C@H](C)O2)[C@H](C)[C@@H](O[C@H]2O[C@@H](C)C[C@@H](N(C)C(=O)CNCc3ccccc3)[C@@H]2O)[C@](C)(O)C[C@@H](C)[C@H](O)[C@H](C)[C@@H](O)[C@]1(C)O`, the Inhibition is recorded as 71%.

`CC[C@H]1OC(=O)[C@H](C)[C@@H](O[C@H]2C[C@@](C)(OC)[C@@H](O)[C@H](C)O2)[C@H](C)[C@@H](O[C@H]2O[C@@H](C)C[C@@H](N(C)C(=O)CNCCC(C)C)[C@@H]2O)[C@](C)(O)C[C@@H](C)[C@H](O)[C@H](C)[C@@H](O)[C@]1(C)O`: the Inhibition turned out to be 18%.

In the case of `CC[C@H]1OC(=O)[C@H](C)[C@@H](O[C@H]2C[C@@](C)(OC)[C@@H](O)[C@H](C)O2)[C@H](C)[C@@H](O[C@H]2O[C@@H](C)C[C@@H](N(C)C(C)=O)[C@@H]2O)[C@](C)(O)C[C@@H](C)[C@H](O)[C@H](C)[C@@H](O)[C@]1(C)O`, the Inhibition stood at 79%.

Turning to `CC[C@H]1OC(=O)[C@H](C)[C@@H](O)[C@H](C)[C@@H](O[C@H]2O[C@@H](C)C[C@@H](N(C)CCCNCc3nccs3)[C@@H]2O)[C@](C)(O)C[C@@H](C)[C@H](O)[C@H](C)[C@@H](O)[C@]1(C)O`, the Inhibition was determined as 53%.

`CC[C@H]1OC(=O)[C@H](C)[C@@H](O[C@H]2C[C@@](C)(OC)[C@@H](O)[C@H](C)O2)[C@H](C)[C@@H](O[C@H]2O[C@@H](C)C[C@@H](NCCNCCNCc3nccs3)[C@@H]2O)[C@](C)(O)C[C@@H](C)[C@H](O)[C@H](C)[C@@H](O)[C@]1(C)O`: the Inhibition is listed as 43%.

In the case of `CC[C@H]1OC(=O)[C@H](C)[C@@H](O[C@H]2C[C@@](C)(OC)[C@@H](O)[C@H](C)O2)[C@H](C)[C@@H](O[C@H]2O[C@@H](C)C[C@@H](N(C)C(=O)CNCCN(C)C)[C@@H]2O)[C@](C)(O)C[C@@H](C)[C@H](O)[C@H](C)[C@@H](O)[C@]1(C)O`, the Inhibition was 31%.

Regarding `CC[C@H]1OC(=O)[C@H](C)[C@@H](O)[C@H](C)[C@@H](O[C@H]2O[C@@H](C)C[C@@H](N(C)C(C)=O)[C@@H]2O)[C@](C)(O)C[C@@H](C)[C@H](O)[C@H](C)[C@@H](O)[C@]1(C)O`, the Inhibition amounted to 66%.

For `CC[C@H]1OC(=O)[C@H](C)[C@@H](O[C@H]2C[C@@](C)(OC)[C@@H](O)[C@H](C)O2)[C@H](C)[C@@H](O[C@@H]2O[C@H](C)C[C@H](N(C)C)[C@H]2O)[C@](C)(O)C[C@@H](C)C(=O)[C@H](C)[C@@H](O)[C@]1(C)O` [ERYTHROMYCIN], the Inhibition was found to be 42%.

With `CC[C@H]1OC(=O)[C@H](C)[C@@H](O[C@H]2C[C@@](C)(OC)[C@@H](O)[C@H](C)O2)[C@H](C)[C@@H](O[C@H]2O[C@@H](C)C[C@@H](N(C)CCCNCc3nccs3)[C@@H]2O)[C@](C)(O)C[C@@H](C)[C@H](O)[C@H](C)[C@@H](O)[C@]1(C)O`, the Inhibition came out at 74%.

Take `CC[C@H]1OC(=O)[C@H](C)[C@@H](O[C@H]2C[C@@](C)(OC)[C@@H](O)[C@H](C)O2)[C@H](C)[C@@H](O[C@H]2O[C@@H](C)C[C@@H](N(C)Cc3ccccc3)[C@@H]2O)[C@](C)(O)C[C@@H](C)[C@H](O)[C@H](C)[C@@H](O)[C@]1(C)O`: the Inhibition came out at 58%.
